Results: ChEMBL document CHEMBL1134134, “Novel tricyclic benzothiazolo[2,3-c]thiadiazine antagonists of the platelet ADP receptor (P2Y(12))” (Bioorg Med Chem Lett, 2001)

Assays:
Homo sapiens = organism: Homo sapiens; experiment: Ability to inhibit platelet aggregation; format: functional, organism-based
P2Y purinoceptor 12 [1] = biological target: T1, P2Y purinoceptor 12 (Homo sapiens, UniProt Q9H244); experiment: Ability to displace [3H]2-MeS-ADP from human Purinergic receptor P2Y12; format: tissue-based
P2Y purinoceptor 12 [2] = biological target: T1, P2Y purinoceptor 12; experiment: Compound was evaluated for its ability to inhibit human Purinergic receptor P2Y12 expressed in Xenopus oocyte

T1 sequence (Q9H244 whole entry): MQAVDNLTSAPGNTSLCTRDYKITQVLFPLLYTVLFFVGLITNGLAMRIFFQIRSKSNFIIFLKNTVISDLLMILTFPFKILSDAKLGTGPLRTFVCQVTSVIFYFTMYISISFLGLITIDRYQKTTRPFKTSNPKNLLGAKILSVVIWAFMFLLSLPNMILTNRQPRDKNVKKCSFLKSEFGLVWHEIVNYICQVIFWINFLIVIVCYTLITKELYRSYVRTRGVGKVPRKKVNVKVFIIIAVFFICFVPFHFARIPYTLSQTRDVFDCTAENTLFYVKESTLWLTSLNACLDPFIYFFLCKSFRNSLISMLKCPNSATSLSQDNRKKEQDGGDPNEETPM

Structure (SMILES)	IC50 (Homo sapiens) [µM]	IC50 (P2Y purinoceptor 12 [1]) [µM]	IC50 (P2Y purinoceptor 12 [2]) [µM]
CCOC(=O)c1ccc2c(c1)SC1=NS(=O)(=O)C(C(=O)CS(=O)(=O)Nc3nc4ccc(C(=O)OCC)cc4s3)=C(O)N12	0.8	1.8	
COc1cccc2c1N1C(O)=CS(=O)(=O)N=C1S2	> 120	77	
Cc1ccc2c(c1)SC1=NS(=O)(=O)C(C(=O)CS(=O)(=O)Nc3nc4ccc(C)cc4s3)=C(O)N12	9.5		
COc1ccc2c(c1)SC1=NS(=O)(=O)C(C(=O)CS(=O)(=O)Nc3nc4ccc(OC)cc4s3)=C(O)N12	1.5		
O=S1(=O)C=C(O)N2C(=N1)Sc1cc(OC(F)(F)F)ccc12	> 50	> 120	
CCOc1ccc2c(c1)SC1=NS(=O)(=O)C(C(=O)CS(=O)(=O)Nc3nc4ccc(OCC)cc4s3)=C(O)N12	0.18		0.04
CS(=O)(=O)c1ccc2c(c1)SC1=NS(=O)(=O)C(C(=O)CS(=O)(=O)Nc3nc4ccc(S(C)(=O)=O)cc4s3)=C(O)N12	2.9	1.1	

Further lines, with some results ahead:

IC50 (Homo sapiens) [µM]	IC50 (P2Y purinoceptor 12 [1]) [µM]	Structure (SMILES)	IC50 (P2Y purinoceptor 12 [2]) [µM]
> 120	> 120	O=C1/C(=C(\O)CS(=O)(=O)Nc2nc3ccc(C4CCCCC4)cc3s2)S(=O)(=O)N=C2Sc3cc(C4CCCCC4)ccc3N12	
> 24	> 50	O=C1/C(=C(\O)CS(=O)(=O)Nc2nc3ccc(-c4ccccc4)cc3s2)S(=O)(=O)N=C2Sc3cc(-c4ccccc4)ccc3N12	
64	35	O=C1/C(=C(\O)CS(=O)(=O)Nc2nc3ccc(Cl)cc3s2)S(=O)(=O)N=C2Sc3cc(Cl)ccc3N12	
50	35	O=C1/C(=C(\O)CS(=O)(=O)Nc2nc3ccc([N+](=O)[O-])cc3s2)S(=O)(=O)N=C2Sc3cc([N+](=O)[O-])ccc3N12	
> 120	37	O=C1/C(=C(\O)CS(=O)(=O)Nc2nc3ccc(F)cc3s2)S(=O)(=O)N=C2Sc3cc(F)ccc3N12	
> 24	> 50	O=C1/C(=C(\O)CS(=O)(=O)Nc2nc3ccc(Oc4ccccc4)cc3s2)S(=O)(=O)N=C2Sc3cc(Oc4ccccc4)ccc3N12	
26	21	O=C1/C(=C(\O)CS(=O)(=O)Nc2nc3ccccc3s2)S(=O)(=O)N=C2Sc3ccccc3N12	
